The values below come from publication PMC10044725, “Antioxidant, Anti-Inflammatory and Anti-Diabetic Activities of Tectona grandis Methanolic Extracts, Fractions, and Isolated Compounds” (Antioxidants, 2023).

Marks after values point to notes of the source that are not given here.

Assay [1] can be described thus: DPPH free radical scavenging assay. The conditions noted are these: isolated compounds; half scavenging concentration; read-out: DPPH Assay SC50. As to the method: The DPPH free radical scavenging activities of T. grandis methanolic extract, different fractions and its compounds were conducted according to Dr. Yang et al.. […] The absorbance was measured using a microplate reader at 517 nm, and ascorbic acid was used as a positive control. The DPPH scavenging activity was calculated according to the following formula: Scavenging activity (%) = [1 − (A1 − A2)/(A3 − A4)] × 100% (1) where A1 is the OD value of the tested samples, A2 is the OD value of the sample control, A3 is the OD value of the negative control and A4 is the OD value of the blank control. The analysis was performed in triplicates and the results were described as SC50 values.
On the technique in general: Loss of DPPH colour is used to gauge radical scavenging.

Assay [2] is described as follows: ABTS radical cation scavenging assay (Trolox equivalent). To be noted: compounds at 50 μM. Here is the method: The ABTS radical cation (ABTS•+) scavenging activities were conducted in accordance with the instructions for the ABTS kit. The total antioxidant activity values were estimated using the Trolox equivalent antioxidant capacity test. The detection concentration of methanolic extract and different fractions was 80 μg/mL, and the detection concentration of compounds (1–23) was 50 μM. […] Then, 190 μL of ABTS working reagent was mixed with 10 μL sample and incubated at room temperature for 5 min. The absorbance was then measured using a microplate reader at 734 nm, and the scavenging activity was calculated according to Equation (2). The blank control group used DMSO to replace the sample. […] The analysis was performed in triplicates, 1.424, 0.0012 was a constant.

Assay [3] is described as follows: Ferric reducing antioxidant power (FRAP) assay. To be noted: compounds at 50 μM; Trolox equivalent. As to the method:
The FRAP assay was determined in accordance with the instructions for the FRAP kit. The total antioxidant activity values were estimated using the Trolox equivalent antioxidant capacity test. Initially, the detection concentration of methanolic extract and different fractions was 80 μg/mL, and the detection concentration of compounds (1–23) was 50 μM. Then, 190 μL of FRAP working reagent was mixed with 10 μL sample and incubated at room temperature for 20 min. The absorbance was then measured using a microplate reader at 593 nm, and the scavenging activity was calculated according to Equation (3). The blank control group used DMSO to replace the sample. […] The analysis was performed in triplicates, 0.8054, 0.0134 was a constant.

A further assay deals with pBR322 DNA. Briefly: Prevention of AAPH-induced DNA oxidative damage. To be noted: AAPH 20 mM; p < 0.0001 vs model. Here is the method: The effects of T. grandis methanolic extract, different fractions and its compounds 15, 19 and 23 on the prevention of DNA oxidative damage were carried out using the method of Han et al.. Initially, 8 μL pBR322 DNA (50 μg/mL) in PBS (0.1 M, pH 6.8) was mixed with different concentrations of T. grandis fractions and its compounds (12 μL) and incubated in water at 37 °C for 30 min. Then, 5 μL AAPH (20 mM) was added to the mixture and the reaction continued for 60 min. The control group used the same volume of PBS (0.1 M, pH 6.8) to replace AAPH. The pre-treated samples were mixed with 5 × DNA loading buffer, and the mixture (8 μL) was taken for 1.0% agarose gel electrophoresis for 25 min. After electrophoresis, the gels were stained with ethidium bromide for 20 min. Finally, images were taken using a DNA gel imaging system (ChampChemi 610, Beijing sage creation Co., Ltd. Beijing, China).

Another assay has as its system BSA. Briefly: Prevention of AAPH-induced protein oxidative damage. Set-up: species or system Bovine. The conditions noted are these: AAPH 160 mM; residual BSA. As to the method:
The protective activities of T. grandis methanolic extract, different fractions and its compounds 15 and 23 on protein oxidative damage were carried out using the method of Yang et al.. Initially, 20 μL BSA solutions (1 mg/mL) in PBS (0.1 M, pH 6.8) were mixed with different concentrations of fractions (40 μL) and compounds (40 μL) and incubated in water at 37 °C for 30 min. Then, 40 μL AAPH (160 mM) was added to the mixture and the reaction continued for 4 h. The control group used the same volume of PBS (0.1 M, pH 6.8) to replace AAPH. The pre-treated samples were added to 5 × SDS loading buffer and treated in water at 95 °C for 15 min. […] After electrophoresis, the gels were stained with Coomassie brilliant blue R-250 dye (0.25%, w/v), and then the gels were decolorized with the decolorizing solution. Finally, images were taken using the SDS-PAGE gel imaging system (ChampChemi 610, China) and the grayscale of Western blot was analyzed using Image J software.

A further assay has as its system IL-1β. The assay is described as follows: IL-1β secretion in LPS-stimulated RAW 264.7 macrophages (ELISA). The format is cell-based, mouse. The conditions noted are these: 40 µM, LPS 1 µg/mL, 48 h, vs model control (p < 0.0001). Here is the method:
In order to increase cytokine production, macrophages were treated with LPS at a final concentration of 1 µg/mL, and then with T. grandis compounds at 40 µM. The compounds were solubilized in DMEM medium containing 0.1% DMSO. Dexamethasone was employed as a positive control (5 µg/mL). A centrifuge was used to separate the supernatant from the cells after 48 h of incubation, with three replicates per group. Quantification of TNF-α, IL-1β and IL-6 secretion was achieved by following the ELISA manufacturer's instructions. Then, absorbance was measured at 450 nm. Relative TNF-α, IL-1β and IL-6 expression was calculated according to Equation (4). Following the inflammatory factor test, cell viability was detected by CellTiter96® Aqueous One Solution Cell Proliferation Assay. Then, 20 μL/well CellTiter96® Aqueous One Solution Cell Growth Assay reagent was added to the plate and incubated at 37 °C for 8 h, absorbance was measured at […] and relative cell viability was calculated according to Equation (5). Relative content of inflammatory cytokines (%) = (A1/A2)/A3 × 100%(4) where A1 is the concentrations value of inflammatory cytokines of each group, A2 is the relative cell viability of each group (model group is 100) and A3 is the concentration of inflammatory cytokines of model group. Cell viability rate (%) = B1/B2 × 100%(5) where B1 is the OD value of each fraction group or positive control group and B2 is the OD value of the model control.

For another assay, the system named is α-glucosidase. Briefly: α-Glucosidase inhibition assay (pNPG). The format is biochemical. Here is the method:
The inhibitory effect on α-glucosidase was measured according to the previous report method with slight modifications. The 20 mM sample dissolved in DMSO was diluted to 50 μM in PBS, 10 μL sample was mixed with 50 μL of 0.1 μ/mL α-glucosidase solution in 0.1 M phosphate buffer (pH 6.5) in a 96-well microplate and 10 μL PBS was used as a blank control. The mixture was incubated at 37 °C for 10 min before adding 40 µL of 5 mM 4-nitrophenyl-α-D-glucopyranoside to each well. After 30 min of incubation at 37 °C, the reaction was terminated by adding 50 μL of 0.1 M Na2CO3 to this mixture. The released 4-nitrophenol absorbance measurements were carried out using a microplate reader (SpectraMax190, USA) at 405 nm.

As a reminder, the IC50 is the midpoint of a concentration-inhibition curve. A higher IC50 goes with a need for much substance. Regarding `O=C(O)c1cc(O)c(O)c(O)c1` [Compound 23, gallic acid], in assay [1], the EC50 is 320 ± 70 nM. For the same compound, the “ABTS Assay” value in assay [2] is given as 0.95 ± 0.02 ^a mmol Trolox/L. Besides, in assay [3], the “FRAP Assay” value is 1.03 ± 0.01 ^a mmol Trolox/L. Also, in the assay on pBR322 DNA, the “concentration at which a protective effect against DNA oxidative damage begins” value came out at 0.6 mM. Moreover, the “concentration at which a protective effect against protein oxidative damage begins” value in the assay with BSA is 320 µM. For the same compound, the “effect on IL-1β inflammatory factor level” value in the assay with IL-1β is on record as “significant decrease”. Also, the “Inhibitory Rate (%)” value in the assay with α-glucosidase (at a concentration of 50 µM) was 21.89 ± 3.03 ^c %. The compound further showed an IC50 at α-glucosidase (compounds) of over 50000 nM.
